Results on two molecules are retold here after patent publication US9498506B2, “Pharmaceutical composition for preventing or treating thyroid diseases, comprising extract from Lonicera caerulea L. var. edulis fruits as active ingredient” (H&K BIOSCIENCE CO., LTD., priority 2013, dated 2016).

Assay type in all cases: in vivo
Assay [1] deals with PTU-induced hypothyroidism rat. The assay can be described thus: Change in the weight of reproductive organs, PTU-induced hypothyroidism animal model. The settings on record: PTU-induced hypothyroidism rats; 0.5 mg/kg intraperitoneally. The procedure:
(§1) Experimental animals are the same as described in Experimental Example 3.
(§2) Based on conventional methods known in the art (Neuro Endocrinol Lett. 1999; 20:311-14; Toxicol Sci. 2002; 69:79-91; Korean J Orient Physiol Pathol. 2010; 24:630-7), a hypothyroidism animal model was prepared by administering Propylthiouracil (PTU). Specifically, hypothyroidism was induced by dissolving 100 mg of PTU into 10 ml of saline solution and subcutaneously injecting the capacity of 1 ml/kg into dorsal neck of the animal model once everyday for a period of 28 days. On the other hand, in the intact control group, the same amount of saline solution instead of PTU was administered for the same period in the same manner as described above (FIG. 5).
(§3) Targeting the hypothyroidism animal prepared as above, 500, 250, and 125 mg/kg of the extract from Lonicera caerulea L. car. Edulis fruits (BH) prepared in Example 1-1 were dissolved in sterilized distilled water, respectively, and the capacity of 5 ml/kg was orally administered forcibly once a day for 42 consecutive days, 2 weeks prior to the PTU treatment. On the other hand, LF, an experimental group, was also dissolved in sterilized distilled water, and the capacity of 250 mg/kg was orally administered for the same period in the manner as described above.
(§4) 0.5 mg/kg of LT4 was dissolved in saline solution, and the capacity of 1 ml/kg was intraperitoneally administered once a day for 28 consecutive days since the PTU treatment day in the same manner as described above (Table 6, FIG. 5).

Assay [2] relates to PTU-induced hypothyroidism rat. The assay can be described thus: Testicular antioxidant defense system, PTU-induced hypothyroidism animal model. The note with it: testis, PTU-induced hypothyroidism rats; 0.5 mg/kg intraperitoneally. The procedure:
as §1, §2, §3, §4

Assay [3] relates to PTU-induced hypothyroidism rat. Put plainly: Change in weight, PTU-induced hypothyroidism animal model. The note with it: PTU-induced hypothyroidism rats. As to the method:
as §1, §2, §3, §4
Next, the effects on treating hypothyroidism was confirmed by observing the weight change, thyroid weight change, content change in blood thyroid hormone (TSH, T3, and T4), and histopathological changes in the thyroid (the total thickness of thyroid in which the cells have been cut and average diameter of thyroid follicle) of the rats for each group. […]

Assay [4] relates to PTU-induced hypothyroidism rat. Put plainly: Histopathological observation of thyroid, PTU-induced hypothyroidism animal model. The settings on record: PTU-induced hypothyroidism rats; 0.5 mg/kg intraperitoneally. As to the method: as §1, §2
(§5) Targeting the hypothyroidism animal prepared as above, 500, 250, and 125 mg/kg of the extract from Lonicera caerulea L. car. Edulis fruits (BH) prepared in Example 1-1 were dissolved in sterilized distilled water, respectively, and the capacity of 5 ml/kg was orally administered forcibly once a day for 42 consecutive days, 2 weeks prior to the PTU treatment. On the other hand, LF, an experimental group, was also dissolved in sterilized distilled water, and the capacity of 250 mg/kg was orally administered for the same period in the manner as described above. […]

Assay [5] has as its system PTU-induced hypothyroidism rat. Put plainly: Thyroid hormone content in blood, PTU-induced hypothyroidism animal model. The settings on record: PTU-induced hypothyroidism rats; 0.5 mg/kg intraperitoneally. The procedure:
as §1, §2, §3, §4
Next, the effects on treating hypothyroidism was confirmed by observing the weight change, thyroid weight change, content change in blood thyroid hormone (TSH, T3, and T4), and histopathological changes in the thyroid (the total thickness of thyroid in which the cells have been cut and average diameter of thyroid follicle) of the rats for each group.

The subject of assay [6] is PTU-induced hypothyroidism rat. Put plainly: Change in the thyroid weight, PTU-induced hypothyroidism animal model. The note with it: PTU-induced hypothyroidism rats; 0.5 mg/kg intraperitoneally. The procedure:
as §1, §2, §5

Assay [7] concerns PTU-induced hypothyroidism rat. The assay can be described thus: Histopathological observation of reproductive organs, PTU-induced hypothyroidism animal model. The settings on record: PTU-induced hypothyroidism rats; 0.5 mg/kg intraperitoneally. The procedure:
as §1, §2, §3, §4

Assay [8] deals with PTU-induced hypothyroidism rat. The assay can be described thus: Content of sex hormones in serum, PTU-induced hypothyroidism animal model. The note with it: PTU-induced hypothyroidism rats; LT4 0.5 mg/kg intraperitoneally. As to the method:
as §1, §2, §3, §4

The test system of assay [9] is LT4-induced hyperthyroidism rat. Put plainly: Histopathological observation of thyroid, LT4-induced hyperthyroidism animal model. The note with it: LT4-induced hyperthyroidism rats; 10 mg/kg intraperitoneally. As to the method:
(§6) Total number of 150 male SPF. VAF Outbred-Rats, Crl:CD [Sprague-Dawley, SD] rats (6 weeks old, OrientBio, Seungnam, Korea) were prepared and refined for 8 days in a laboratory environment. After that, rats with consistent weight (average: 233.70 g±10.47 g, 217 g to 252 g) were selected, and 8 rats per group (total of 56 rats) were used for the experiment. In the present invention, all the experimental animals were treated according to animal ethics of the animal experimentation ethics committee of Daegu Haany University. The experiment was conducted after pre-approval.
(§7) Based on conventional methods known in the art (Clin Exp Pharmacol Physiol. 2007 November; 34(11):1217-9, etc.), a hyperthyroidism animal model was prepared by administering LT4 (levothyroxine). Specifically, hyperthyroidism was induced by dissolving 3 mg of LT4 into 10 ml of saline solution and subcutaneously injecting the capacity of 1 ml/kg into dorsal neck of the animal model once everyday for a period of 27 days. On the other hand, in the intact control group, the same amount of saline solution instead of LT4 was administered for the same period in the same manner as described above (FIG. 1).
(§8) Targeting the hyperthyroidism animal prepared as above, 500, 250, and 125 mg/kg of the extract from Lonicera caerulea L. car. Edulis fruits (BH) prepared in Example 1-1 were dissolved in sterilized distilled water, respectively, and the capacity of 5 ml/kg was orally administered forcibly once a day from Day 12 to Day 15 since the treatment.
On the other hand, Lonicerae Flos aqueous hot water extract (LF), an experimental group, was also dissolved in sterilized distilled water, and the capacity of 250 mg/kg was orally administered for the same period in the same manner as described above. 10 mg/kg of PTU was dissolved in saline solution, and the capacity of 1 ml/kg was intraperitoneally administered for the same period in the same manner as described above (Table 1, FIG. 1). […]

Assay [10] has the same test system. Put plainly: Change in the weight of thyroid, LT4-induced hyperthyroidism animal model. The note with it: LT4-induced hyperthyroidism rats; 10 mg/kg intraperitoneally. As to the method: as §6
Based on conventional methods known in the art (Clin Exp Pharmacol Physiol. 2007 November; 34(11):1217-9, etc.), a hyperthyroidism animal model was prepared by administering LT4 (levothyroxine). […]
On the final day of sacrifice, left thyroids of all the experimental animals were extracted and isolated and next, the weight was measured and designated as the absolute weight. In order to minimize the secondary change accompanied with the change in weight, relative thyroid gland weight (Absolute […] weight/body weight at sacrifice ×100), which was the ratio of the absolute weight of the thyroid based on body weight, was calculated.

Assay [11] has the same test system. The assay can be described thus: Thyroid hormone content in blood (radioimmunoassay), LT4-induced hyperthyroidism animal model. The note with it: LT4-induced hyperthyroidism rats; 10 mg/kg intraperitoneally. As to the method:
as §6, §7, §8
On the other hand, Lonicerae Flos aqueous hot water extract (LF), an experimental group, was also dissolved in sterilized distilled water, and the capacity of 250 mg/kg was orally administered for the same period in the same manner as described above. […]
The TSH, T3, and T4 contents in blood were measured in the units including ng/ml or μg/ml by Gamma count Cobra II (Packard Co., IL, USA) utilizing Coat A count Total TSH, T3 or T4 kit (DPC, CA, USA), respectively, based on Radioimmunoassay method (Toxicol Sci 69(1): 79-91, 2002).

Assay [12] shares this test system. Put plainly: Change in weight, LT4-induced hyperthyroidism animal model. The note with it: LT4-induced hyperthyroidism rats. The procedure:
as §6, §7, §8
On the other hand, Lonicerae Flos aqueous hot water extract (LF), an experimental group, was also dissolved in sterilized distilled water, and the capacity of 250 mg/kg was orally administered for the same period in the same manner as described above. 10 mg/kg of PTU was dissolved in saline solution, and the capacity of 1 ml/kg was intraperitoneally administered for the same period in the same manner as described above (Table 1, FIG. 1).
Next, the effects on treating hyperthyroidism was confirmed by observing the weight change, thyroid weight change, content change in blood thyroid hormone (TSH, T3, and T4), and histopathological change in the thyroid (the total thickness of thyroid in which the cells have been cut, average diameter of thyroid follicle, and thickness of thyroid epithelium) of the rats for each group.

Marks after values point to notes of the source that are not given here.

As for `N[C@@H](Cc1cc(I)c(Oc2cc(I)c(O)c(I)c2)c(I)c1)C(=O)O` [LT4, Levothyroxine], in [1], the “Absolute organ weights Epididymis” value was 0.342 ± 0.042^ac g, the “Absolute organ weights Prostate” value is 0.492 ± 0.042^ef g, the “Absolute organ weights Testis” value is on record as 1.082 ± 0.045^eg and the “Relative organ weights Epididymis” value was 0.086 ± 0.012^gi % of body weights. In addition, in assay [1], the “Relative organ weights Prostate” value is recorded as 0.124 ± 0.013^gf % of body weights and the “Relative organ weights Testis” value is recorded as 0.273 ± 0.021^ac % of body weights. In assay [2], the “Antioxidant defense system Catalase” value is listed as 8.63 ± 2.13^eg U/mg protein, the “Antioxidant defense system H2O2” value was 80.63 ± 16.27^ab nM/mg protein, the “Antioxidant defense system SOD” value is recorded as 8.50 ± 2.00^eg U/mg protein and the “Lipid peroxidation Malondialdehyde” value was found to be 5.54 ± 0.91 nM/mg protein. In addition, in [3] (0.5 mg/kg intraperitoneally), the “Body weight gains during 4 weeks of PTU treatment” value was 45.50 ± 14.55^fg and the “Body weight gains during 6 weeks of total experiments” value is given as 173.00 ± 16.75^ab. Further, the “Body weight gains during 2 weeks of test material pretreatment” value in [3] (0.5 mg/kg intraperitoneally group, period before LT4 and PTU dosing, in g (unit assumed)) was 127.50 ± 13.15. Besides, in [4], the “Thyroid gland Mean follicular diameters” value is recorded as 102.24 ± 12.47^ac μm/follicle and the “Thyroid gland Total thickness” value is 1542.77 ± 137.07^bc μm/central regions. Further, in assay [5], the “Serum thyroid hormone levels TSH” value is on record as 10.74 ± 1.62^bc ng/ml, the “Serum thyroid hormone levels Thyroxine” value is 6.75 ± 1.45^e μg/ml and the “Serum thyroid hormone levels Tri-iodothyronine” value was 19.24 ± 3.21^a ng/ml. Also, in assay [6], the “Absolute organ weights Thyroid gland” value is listed as 0.012 ± 0.003^c g and the “Relative organ weights Thyroid gland” value is recorded as 0.003 ± 0.001^c % of body weights. Besides, in [7], the “Epididymis A/O tubule percentages” value is listed as 56.00 ± 7.52^df %/mm^2, the “Epididymis Mean tubular diameters” value is reported as 217.98 ± 14.97^df μm/tubules of head, the “Prostate Atrophic tubule percentage” value is 73.50 ± 10.80^ab %/mm^2 and the “Prostate Mean tubular epithelial thickness” value is on record as 11.82 ± 2.76^df μm/tubules. For the same molecule, in [7], the “Testis Mean semniferous tubule diameters” value is on record as 195.00 ± 13.29^df μm/tubules and the “Testis Stage I~II semniferous tubule percentages” value is on record as 15.63 ± 2.39^df %/mm^2. Moreover, in assay [8], the “Serum male reproductive hormone levels DHT” value is reported as 98.00 ± 13.43^ab pg/ml, the “Serum male reproductive hormone levels FSH” value was 21.01 ± 1.65^ab ng/ml and the “Serum male reproductive hormone levels Testosterone” value is 1.45 ± 0.18^fi ng/ml.
For `CCCc1cc(=O)[nH]c(=S)[nH]1` [PTU, 6-n-propyl-2-thiouracil], in assay [9], the “Thyroid glands Mean follicular epithelium thickness” value is 14.50 ± 2.84^gh μm/follicle, the “Thyroid glands Mean follicular thickness” value was 71.87 ± 12.05^c μm/follicle and the “Thyroid glands Total thickness” value was 1628.19 ± 174.84^ac μm/central region. In assay [10], the “Absolute organ weights Thyroid gland” value is 8.88 ± 2.03^h mg and the “Relative organ weights (% of BW) Thyroid gland” value is listed as 2.71 ± 0.64^c mg/g of BW. In assay [11], the “Serum thyroid hormone levels TSH” value was 1.37 ± 0.24^ac ng/ml, the “Serum thyroid hormone levels Thyroxine” value was 71.30 ± 23.13^bc μg/ml and the “Serum thyroid hormone levels Tri-iodothyronine” value is 0.80 ± 0.18^ac ng/ml. Also, in assay [12] (10 mg/kg intraperitoneally), the “Body weight gains during 15 days of PTU and herbal extracts treatment” value is 58.75 ± 15.04^ab; the “Body weight gains during 27 days of total experiments” value is on record as 113.63 ± 24.49^ab; the “days after administration from which weight was considerably increased compared to LT4 control” value was 5 days. For the same molecule, in assay [12] (10 mg/kg intraperitoneally group, period before test substance dosing), the “Body weight gains during 12 days of LT4 pretreatment” value was 54.50 ± 13.15^d.
